Source: US20120129811A1, “TRICYCLIC INHIBITORS OF PRO-MATRIX METALLOPROTEINASE ACTIVATION” (priority 2010, published 2012)
Where a name gives a salt, the structure may show the parent alone.

Experiments:
[1] = target: T1, proMMP9(67-444;ΔFnII) (SEQ ID NO:5) (Homo sapiens, UniProt P14780, DEL216-390); test: ThermoFluor binding assay with proMMP9(67-444;ΔFnII)
T1 construct: start methionine (N); made in house; host or cells: E. coli BL21(DE3) RIL
T1 sequence (P14780 with tags, fused parts or gaps DEL216-390): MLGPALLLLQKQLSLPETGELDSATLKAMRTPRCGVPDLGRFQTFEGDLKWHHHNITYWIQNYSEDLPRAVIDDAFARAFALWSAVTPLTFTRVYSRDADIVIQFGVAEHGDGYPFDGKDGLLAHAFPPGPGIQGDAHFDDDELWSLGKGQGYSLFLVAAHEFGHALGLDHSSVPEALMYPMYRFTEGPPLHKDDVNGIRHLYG
Procedure, shortened: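 Thermal shift of 3.5 μM proMMP9(67-444;ΔFnII), desalted beforehand, with 50 μM 1,8-ANS in 50 mM HEPES pH 7.0, 100 mM NaCl, 2.5 mM MgCl2, 300 μM CaCl2, 0.001% Tween-20. Heated 40–90 °C at 1 °C/min, fluorescence read at 500 nm; binding fitted from Tm shifts using DSC- and ThermoFluor-derived unfolding parameters.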

[2] = target: T2, proMMP13(1-268) activation by plasmin (Homo sapiens, UniProt P45452); test: ProMMP13/Plasmin P126 Activation Assay; assay type: biochemical
T2 construct: 6xHis (C); made in house; host or cells: HEK293 (proMMP13)
Description: ProMMP13/Plasmin P126 Activation Assay
On the day of assay, proMMP13(1-268) (SEQ ID NO:7) purified from HEK293 cells and plasmin were diluted to 160 nM and 320 nM, respectively, in assay buffer. The reaction volume was 50 μL. […] The plate was sealed and incubated for 40 min at 37° C. […] Plasmin was not reactive towards P-126 substrate under these conditions.

[3] = target: T3, proMMP9(20-445;ΔFnII) (SEQ ID NO:6) (Homo sapiens, UniProt P14780, DEL216-390); test: ThermoFluor binding assay with proMMP9(20-445;ΔFnII)
T3 construct: start methionine (N); made in house; host or cells: E. coli BL21(DE3) RIL
T3 sequence (P14780 with tags, fused parts or gaps DEL216-390): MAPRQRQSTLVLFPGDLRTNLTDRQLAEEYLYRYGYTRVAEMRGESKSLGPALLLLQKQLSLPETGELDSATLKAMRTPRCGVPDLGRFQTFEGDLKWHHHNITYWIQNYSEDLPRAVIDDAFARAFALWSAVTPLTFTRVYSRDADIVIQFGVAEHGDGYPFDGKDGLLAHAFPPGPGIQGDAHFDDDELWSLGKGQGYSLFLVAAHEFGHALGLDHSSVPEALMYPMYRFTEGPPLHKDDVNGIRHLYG
Procedure, shortened: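 Protein thermal stability was measured with 2.8 μM proMMP9(20-445;ΔFnII) and 50 μM 1,8-ANS in 50 mM HEPES pH 7.0, 100 mM NaCl, 0.001% Tween-20, 2.5 mM MgCl2, 300 μM CaCl2, across serial compound dilutions. Samples were heated 40–90° C at 1° C/min with fluorescence read at 500 nm. Tm was fitted, and binding was derived from thermodynamic parameters obtained by DSC and ThermoFluor.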

[4] = target: T4, full-length proMMP9(1-707) activation by catalytic MMP3 (Homo sapiens, UniProt P14780, R574P); test: proMMP9/MMP3 P126 Activation Assay; assay type: biochemical
T4 construct: made in house; host or cells: proMMP9: HEK293 (secreted); MMP3: E. coli
Description: proMMP9/MMP3 P126 Activation Assay
The reaction volume was 50 μL. […] Reactivity of residual MMP3 towards P-126 substrate was minimal under these conditions.

[5] = target: T5, proMMP13(1-268) (SEQ ID NO:7) (Homo sapiens, UniProt P45452); test: ThermoFluor binding assay with proMMP13(1-268)
T5 construct: 6xHis (C); made in house; host or cells: HEK293 (transient, secreted)
Procedure, shortened: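 Thermal shift of desalted proMMP13(1-268) at 3.5 μM final, in 50 mM HEPES pH 7.0, 100 mM NaCl, 0.001% Tween-20, 2.5 mM MgCl2, 300 μM CaCl2, with 25 μM 1,8-ANS. Serially diluted compounds heated 40–90° C. at 1° C./min, fluorescence read at 500±25 nm. Tm fitted; binding modeled using DSC-derived thermodynamic parameters.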

T4 sequence (P14780 20-707 R574P): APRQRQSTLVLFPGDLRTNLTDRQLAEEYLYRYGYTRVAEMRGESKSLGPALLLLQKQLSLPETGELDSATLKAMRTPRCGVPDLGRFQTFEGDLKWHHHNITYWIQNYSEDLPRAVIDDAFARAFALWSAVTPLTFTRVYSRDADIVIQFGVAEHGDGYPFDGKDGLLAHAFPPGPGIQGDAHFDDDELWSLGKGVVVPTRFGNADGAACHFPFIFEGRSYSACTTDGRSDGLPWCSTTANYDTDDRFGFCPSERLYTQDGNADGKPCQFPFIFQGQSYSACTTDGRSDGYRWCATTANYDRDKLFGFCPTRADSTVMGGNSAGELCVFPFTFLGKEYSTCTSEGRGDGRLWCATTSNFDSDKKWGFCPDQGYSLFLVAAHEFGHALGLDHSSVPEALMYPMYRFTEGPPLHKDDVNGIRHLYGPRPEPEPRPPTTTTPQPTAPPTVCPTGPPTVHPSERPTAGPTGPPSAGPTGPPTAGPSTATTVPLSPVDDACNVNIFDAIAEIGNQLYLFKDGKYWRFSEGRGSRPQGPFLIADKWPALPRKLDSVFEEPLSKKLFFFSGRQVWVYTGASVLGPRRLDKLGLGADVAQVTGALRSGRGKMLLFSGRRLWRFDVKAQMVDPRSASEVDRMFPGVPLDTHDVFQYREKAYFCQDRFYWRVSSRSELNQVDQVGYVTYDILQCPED

SMILES | Kd [1] | IC50 [2] | Kd [3] | IC50 [4] | Kd [5]
CC(C)Oc1ccc(C(N)=O)cc1Nc1nc2c(ccc3cnccc32)s1 [Example 90, 4-Isopropoxy-3-(thiazolo[4,5-f]isoquinolin-2-ylamino)-benzamide.TFA] | 3000 nM | 2500 nM | 280 nM | 200 nM | 2700 nM
CC(C)Oc1ccc(C(N)=O)cc1Nc1nc2c(ccc3c2cnn3C)s1 [Example 30, 4-Isopropoxy-3-(6-methyl-6H-3-thia-1,6,7-triaza-as-indacen-2-ylamino)-benzamide.HCl] | 310 nM | 4500 nM | 120 nM | 190 nM | 930 nM
COc1ccc(F)cc1Nc1nc2c(ccc3c2ncn3C)s1 [Example 57, (5-Fluoro-2-methoxy-phenyl)-(6-methyl-6H-imidazo[4′,5′:3,4]benzo[2,1-d]thiazol-2-yl)-amine.HCl] | 35 nM | ~6000 nM | 230 nM | 70 nM | 2800 nM
CC(C)Oc1ccc(C(N)=O)cc1Nc1nc2c(ccc3ccncc32)s1 [Example 89, 4-Isopropoxy-3-(thiazolo[5,4-h]isoquinolin-2-ylamino)-benzamide.TFA] | 780 nM | 2800 nM | 3100 nM | 330 nM | 6800 nM
COc1cc(C(N)=O)ccc1Nc1nc2c(ccc3c2ncn3C)s1 [Example 51, 3-Methoxy-4-(6-methyl-6H-imidazo[4′,5′:3,4]benzo[2,1-d]thiazol-2-ylamino)-benzamide.HCl] | 400 nM | > 20000 nM | 3100 nM | 200 nM | 8300 nM
CC(C)Oc1ccc(C(N)=O)cc1Nc1nc2c(ccc3c2ncn3C)s1 [Example 22, 4-Isopropoxy-3-(6-methyl-6H-imidazo[4′,5′:3,4]benzo[2,1-d]thiazol-2-ylamino)-benzamide.HCl] | 100 nM | 1900 nM | 170 nM | 92 nM | 810 nM
CCn1cnc2ccc3sc(Nc4cc(C(N)=O)ccc4OC(C)C)nc3c21 [Example 33, 3-(8-Ethyl-8H-imidazo[4′,5′:3,4]-benzo[2,1-d]thiazol-2-ylamino)-4-isopropoxy-benzamide.HCl] | 490 nM | 1100 nM | 86 nM | 100 nM | 580 nM
